Residues, ends and D or L forms follow the SMILES beside them. *: point of attachment. Biotin = O=C1N[C@H]2[C@H](CS[C@H]2CCCCC(=O)*)N1
Key:
[1] = Peptide delivery to brain cortex of undamaged animals; type: in vivo; conditions: 3 nmol/g i.v. (retro-orbital), undamaged male mice, sacrificed 30 min after; Fluorescein Avidin D (Fig S5)
Experimental: Vehicle (saline), Bio-TMyc or Bio-TT1Ct (3 nmol/g) were retro-orbitally injected in mice one hour after induction of photothrombotic damage or, alternatively, undamaged animals. In the first case, animals were sacrificed 5 h after damage induction while, the second group was sacrificed 30 min after peptide administration. The details of brain fixation and cryoprotection for peptide visualization and/or immunohistochemistry are provided in the Supplementary material. […]
Finally, the sa mple s were mounted in Prolong Diamond. The images were acquired using an inverted Zeiss LSM 710 laser confocal microscope (Jena, Germany) with a 40x or 63x Plan-Apochromatic oil immersion objective. Images corre spond to single se ctions and were normalized for eac h colour se para tely and process ed for presenta tion with ImageJ (NIH Image) and Fiji.
Peptide visualization and immunohistochemis tr y in brain cortex
For peptide visua liz ation in undamaged or damaged brains, animals were deeply anes thetized and intra cardially perfus ed with cold PBS and 4% paraformalde hyde in PBS. Brains were post-fixed in the sa m e fixative at 4°C for 24 h and cryoprote cted in 30% suc ros e for 48 h at 4°C. […]

[2] = Infarct volume after photothrombotic permanent ischemia; type: in vivo, mice; conditions: 24 h; for Decrease of infarct volume: versus TMyc, 3 nmol/g i.v. 1 h after damage
Experimental: Permanent focal ischemia was induced in cerebral cortex of adult male and female mice by microvascular photothrombosis as described with modifications. Brain injury involves vascular endothelium damage and platelet activation, followed by microvascular thrombotic occlusion of a particular region selected for illumination using a stereotaxic frame. Coordinates were +0.2 AP, +2 ML relative to Bregma and damaged area corresponded to primary motor and somatosensory cortex. For neuroprotection, a single dose (3 nmol/g) of peptides TMyc or TT1Ct (see below) was administered 1 h after damage initiation. Further details of the procedures, including measurement of infarct volume and evaluation of motor coordination and balance, are detailed as Supplementary material.
Antibodies, chemica ls and recombinant proteins, cell-penetrating peptides , prime rs , commercial as says , experimental models, recombinant DNAs and software ar e des cribe d in the Table S1, included as Supplementary material.
Animal procedures were performed follow ing Europea n Union Directive 2010/63/ EU and were approved by the CS I C and Comunidad de Ma drid (Ref PROEX 276.6/20) ethics committees.
Hous ing facilities were approved by Comunidad de Ma drid (#ES 280790000188) and conform to official regulations. Animals had sta ndard health and immune sta tus and were looked af ter by profes sional caretake rs daily. Ma l e and female mice were kept in groups of up to five in sta ndard IVC cage s while 1–2 pregnant rats occupied sta ndard cage s, always containing bedding and nes ting materials. Animals were under controlled lighting conditions (12 h light cycles ), relative humidity and temperature. Irradiated food and water were provided ad libitum.
We trie d to minimiz e animal suffering and reduce the number of sa cri f i ced animals .
Mi c e model of isc he mia by microv ascular photothr ombosis to study in vivo excitotoxicity This model of permanent focal isc hemia mimics embolic or thrombotic occlus ion of sm a ll ar ter ie s, which is freque ntly found in human stroke, and caus es a focal brain damage with histological and MR I corre lations to human patterns. The procedure was as previously des cribe d with some modific ations . Ma l e and female Ba lb/c OlaHsd mice (23–31 g; 10–16 weeks of age; Envigo Rms , Spain S.L.) were allowed to acc limatize to our facilities for at least 1 week af ter delivery, before isc hemic induction. They were kept with the sa m e cage mates, and daily examined to chec k their health sta tus . Mi c e were anes thetized with isoflurane (5% for induction, 2% for maintenance in oxygen; Abbot Labora tories , Ma drid, Spain) and then placed in a ste reotaxic frame (Naris hige Group, Tokyo, Ja pan). Body temperature was maintained at 36–37°C using a se l f-regulating heating blanket (Cibertec, Ma drid, Spain). A midline sc al p incision was made, the skull was expos ed, and both Bregma and Lambda points were identifie d.
A cold- light (Sc hott KL 2500 LCD; Schott Glas s, Ma inz, Germany) with a fibre optic bundle of 1.5 mm in diameter was centred using a micromanipula tor on the right side , at 0.2 mm anterior and 2.0 mm lateral (+0.2 AP, +2 ML ) relative to Bregma. […] Five minutes later, the brain was illumina ted (600 lms, 3,000 K) through the intact […]
skull for 10 min. Br ain injury encompas se s damage to vas cular endothelium, platelet activation, and subs equent microvascula r thrombotic occlus ion of the irradiate d region. The ar eas underneath this ste reotaxic position that result irradiate d ar e the prima ry motor cortex and the prima ry soma tos ens ory cortex (hindlimb and forelimb). Once completed surgery, the incision was sutured, and mice were allowed to recover. […]

[3] = Beam walking test after photothrombotic ischemia; type: in vivo, mice; conditions: male mice

Compound | Crossing of the BBB and delivery to cortical cells [1] | Decrease of infarct volume ([2]; female mice) [%] | Infarct volume (%) ([2]; male + female mice, 3 nmol/g i.v. 1 h after damage induction, TTC, relative to hemisphere volume, mean ± SEM, n = 19, n = 20) | Decrease of infarct volume ([2]; male mice) [%] | Recovery in beam walking test ([3]; TT1Ct versus TMyc slips) [%] | Number of slips ([3]; contralateral hind paw slips, beam walking 24 h after insult, 3 nmol/g i.v. 1 h after damage, mean ± SEM, n = 10-12)
CC[C@H](C)[C@H](NC(=O)[C@H](CC(C)C)NC(=O)[C@H](CCCCN)NC(=O)[C@H](CCC(N)=O)NC(=O)[C@H](CCC(=O)O)NC(=O)[C@H](CCC(=O)O)NC(=O)[C@H](C)NC(=O)[C@H](CCCNC(=N)N)NC(=O)[C@H](CCCNC(=N)N)NC(=O)[C@H](CCCNC(=N)N)NC(=O)[C@H](CCC(N)=O)NC(=O)[C@H](CCCNC(=N)N)NC(=O)[C@H](CCCNC(=N)N)NC(=O)[C@H](CCCCN)NC(=O)[C@H](CCCCN)NC(=O)[C@H](CCCNC(=N)N)NC(=O)CNC(=O)[C@H](Cc1ccc(O)cc1)NC(=O)CCCC[C@@H]1SC[C@@H]2NC(=O)N[C@@H]21)C(=O)N[C@@H](CO)C(=O)N[C@@H](CCC(=O)O)C(=O)N[C@@H](CCC(=O)O)C(=O)N[C@@H](CC(=O)O)C(=O)N[C@@H](CC(C)C)C(=O)N[C@@H](CC(C)C)C(=O)N[C@@H](CCCNC(=N)N)C(N)=O [Bio-TMyc, reference compound] (Biotin-YGRKKRRQRRRAEEQKLISEEDLLR-NH2) | able to cross the BBB and efficiently reach most cortical cells in 30 min |  |  |  |  | 
Ac-YGRKKRRQRRRPPFVLFHKIPLDG-NH2 [TT1Ct] |  | 42 | 10 ± 1 | 45 | 49 | 5 ± 1
